This note sets out measurements from PMC8565778, “Evaluation of health benefits of sea lamprey (Petromyzon marinus) isolates using in vitro antiinflammatory and antioxidant assays” (PLoS ONE, 2021).

Molecules are shown by their SMILES.

Assay [1] addresses T1, COX-2 (cyclooxygenase enzyme-2) (Homo sapiens, UniProt P35354).
T1 construct: gene PTGS2
T1 sequence (P35354 18-604): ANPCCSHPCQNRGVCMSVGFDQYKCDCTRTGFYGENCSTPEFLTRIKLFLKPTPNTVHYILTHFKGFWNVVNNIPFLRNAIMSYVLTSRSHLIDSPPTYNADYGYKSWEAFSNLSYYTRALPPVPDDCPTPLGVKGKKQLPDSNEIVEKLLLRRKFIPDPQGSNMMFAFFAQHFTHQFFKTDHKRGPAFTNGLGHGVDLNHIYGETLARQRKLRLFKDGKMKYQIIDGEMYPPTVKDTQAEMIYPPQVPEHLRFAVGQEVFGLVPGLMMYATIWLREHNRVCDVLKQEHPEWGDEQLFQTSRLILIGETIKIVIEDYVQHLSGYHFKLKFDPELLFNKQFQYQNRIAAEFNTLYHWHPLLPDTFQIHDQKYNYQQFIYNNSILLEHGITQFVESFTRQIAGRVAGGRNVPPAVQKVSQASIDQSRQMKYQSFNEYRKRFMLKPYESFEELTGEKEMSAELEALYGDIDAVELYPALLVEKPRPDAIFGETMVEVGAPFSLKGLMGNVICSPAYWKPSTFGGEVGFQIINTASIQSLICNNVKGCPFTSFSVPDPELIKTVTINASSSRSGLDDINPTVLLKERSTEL
In words: biochemical. The arrangement: In vitro cyclooxygenase (COX-1 and COX-2) enzyme inhibition assay, percent inhibition. To be noted: read-out: % inhibition.

Assay [2] addresses T2, COX-1 (cyclooxygenase enzyme-1) (Ovis aries, UniProt P05979).
T2 construct: gene PTGS1
T2 sequence (P05979 25-600): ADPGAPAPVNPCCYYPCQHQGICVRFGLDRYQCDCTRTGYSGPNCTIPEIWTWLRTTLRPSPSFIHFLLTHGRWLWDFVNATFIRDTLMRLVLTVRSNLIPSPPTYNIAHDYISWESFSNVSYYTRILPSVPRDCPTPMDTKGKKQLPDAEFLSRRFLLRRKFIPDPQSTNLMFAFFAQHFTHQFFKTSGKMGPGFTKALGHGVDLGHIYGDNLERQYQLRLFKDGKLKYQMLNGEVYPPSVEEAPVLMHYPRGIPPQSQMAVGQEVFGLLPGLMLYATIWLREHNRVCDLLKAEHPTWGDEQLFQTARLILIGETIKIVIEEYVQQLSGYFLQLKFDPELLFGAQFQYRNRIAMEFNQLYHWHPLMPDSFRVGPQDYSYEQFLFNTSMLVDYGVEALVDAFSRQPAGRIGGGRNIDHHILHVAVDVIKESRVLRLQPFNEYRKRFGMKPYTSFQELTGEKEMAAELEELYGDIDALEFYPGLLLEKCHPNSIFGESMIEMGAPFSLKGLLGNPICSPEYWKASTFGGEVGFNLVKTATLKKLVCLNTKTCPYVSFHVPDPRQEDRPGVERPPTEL
The assay can be described thus: biochemical. The arrangement: In vitro cyclooxygenase (COX-1 and COX-2) enzyme inhibition assay, percent inhibition. To be noted: read-out: % inhibition. On the procedure: (see S1 File for experimental details). To evaluate the health-beneficial activity of the sea lamprey compounds, we included all isolates of sea lamprey extract for the evaluation of in vitro antiinflammatory and antioxidant activities. […] (S1 File). […] Antiinflammatory activities of arginine, tyrosine, tryptophan, asparagine and inosine were assayed at 50 μg/mL concentration.

Details of assay [3]: Fe2+-induced liposome lipid peroxidation; per cent inhibition measured as loss of fluorescent probe signal. To be noted: large unilamellar vesicles; LPO (lipid peroxidation of large unilamellar liposomes, Fe2+-initiated); 25 ug/mL; inhibitor. On the procedure: Pure compounds and positive controls were assayed for LPO inhibitory activities according to published procedures from our laboratory (see S1 File for experimental details). The antioxidant assay, the lipid peroxidation inhibitory (LPO) assay, used in this study measures free radical scavenging capability of pure compounds and extracts. In this assay, peroxidation of the lipid was initiated by the addition of Fe^2+ resulting in the generation of radicals, which cause the peroxidation of LUV and in turn the fluorescent probes embedded in it. The loss of fluorescent intensity in the assay indicates the oxidative damage to the lipid component of the LUV [11–15, 21] (S1 File). At 25 μg/mL concentration, cholesteryl palmitate, cholesteryl oleate, cholesteryl eicosapentaenoate and cholesteryl arachidonate inhibited LPO by 38, 60, 72 and 82%, respectively (Table 2) (Fig S in S1 File). The most abundant steroidal compound in sea lamprey was cholesterol and it lacked LPO inhibitory activity. Antioxidant activity profiles of the cholesterol esters were like its antiinflammatory profiles. That is, an increase in chain length and unsaturation increased the LPO activity. Majority of the lipophilic fraction of the sea lamprey extract consisted of glycerides and free fatty acids.

`O=C(O)C(O)Cc1ccccc1` (centres unmarked) [3-Phenyllactic acid]: the results for the inhibition at 25 µg/mL in assay [1] and in assay [2] were 11.5 ± 1.6% and 4.42 ± 0.3%, respectively.
In the same order, the values of `Nc1[nH]cnc2ncnc1-2` [Adenine] are 10 ± 1.4% and 11.7 ± 1.8%.
Turning to `Nc1ncnc2c1ncn2[C@@H]1O[C@H](CO)[C@@H](O)[C@H]1O` [Adenosine], the values for the inhibition at 25 µg/mL in assay [1] and in assay [2] were 14.7 ± 0.8% and 16.6 ± 1.1%, respectively.
In the case of `N=C(N)NCCC[C@H](N)C(=O)O` [Arginine], the inhibition at 25 µg/mL in assay [1] is 11.9 ± 1.9%; in assay [2], 29.7 ± 1.3%.
`NC(=O)C[C@H](N)C(=O)O` [Asparagine]: the inhibition at 25 µg/mL in assay [1] worked out at 17.3 ± 0.9%; in assay [2], 26.8 ± 2.3%.
For `N[C@@H](CC(=O)O)C(=O)O` [Aspartic acid], the results for the inhibition at 25 µg/mL in assay [1] and in assay [2] were 4.23 ± 0.6% and 11.8 ± 0.6%, respectively.
For `CC(C)CCC[C@@H](C)[C@H]1CC[C@H]2[C@@H]3CC=C4C[C@@H](O)CC[C@]4(C)[C@H]3CC[C@]12C` [Cholesterol], the inhibition at 25 µg/mL in assay [1] was found to be 4.94 ± 2.4%; in assay [2], 2.92 ± 1.4%.
In the case of `CCCCCCCC/C=C\CCCCCCCC(=O)O[C@H]1CC[C@@]2(C)C(=CC[C@H]3[C@@H]4CC[C@H]([C@H](C)CCCC(C)C)[C@@]4(C)CC[C@@H]32)C1` [Cholesteryl oleate^#], the inhibition at 25 µg/mL in assay [1] stood at 31.1 ± 2.8%; in assay [2], 45.9 ± 0.5%.
Taken in the same sequence, the figures for `CCCCCCCCCCCCCCCC(=O)O[C@H]1CC[C@@]2(C)C(=CC[C@H]3[C@@H]4CC[C@H]([C@H](C)CCCC(C)C)[C@@]4(C)CC[C@@H]32)C1` [Cholesteryl palmitate^#] were 17.7 ± 2.9% and 37.7 ± 2.4%.
`CN(CC(=O)O)C(=N)N` [Creatine]: the values for the inhibition at 25 µg/mL in assay [1] and in assay [2] were 9.65 ± 1.3% and 13.3 ± 2.7%, respectively.
As to `N[C@@H](CS)C(=O)O` [Cysteine], the results for the inhibition at 25 µg/mL in assay [1] and in assay [2] were 9.65 ± 1.3% and 12.9 ± 3.5%, respectively.
Take `N[C@@H](CCC(=O)O)C(=O)O` [Glutamic acid]: the inhibition at 25 µg/mL in assay [1] worked out at 13.8 ± 2.4%; in assay [2] it was 32.2 ± 1.9%.
In the same order, the values of `NCC(=O)O` [Glycine] are 7.01 ± 0.9% and 12.9 ± 1.4%.
In the case of `O=c1[nH]cnc2nc[nH]c12` [Hypoxanthine], the values for the inhibition at 25 µg/mL in assay [1] and in assay [2] were 5.82 ± 0.4% and 10.9 ± 1.4%, respectively.
For `O=c1[nH]cnc2c1ncn2[C@@H]1O[C@H](CO)[C@@H](O)[C@H]1O` [Inosine], the results for the inhibition at 25 µg/mL in assay [1] and in assay [2] were 26.1 ± 0.9% and 35.8 ± 0.5%, respectively.
As to `CC[C@H](C)[C@H](N)C(=O)O` [Isoleucine], the inhibition at 25 µg/mL in assay [1] stood at 9.92 ± 0.5%; in assay [2], 23.3 ± 0.6%.
As to `CC(C)C[C@H](N)C(=O)O` [Leucine], the values for the inhibition at 25 µg/mL in assay [1] and in assay [2] were 4.89 ± 3.9% and 18.2 ± 1.3%, respectively.
For the compound `CSCC[C@H](N)C(=O)O` [Methionine], the inhibition at 25 µg/mL in assay [1] is 4.36 ± 0.4%; in assay [2], 15.2 ± 1.5%.
Taken in the same sequence, the figures for `N[C@@H](Cc1ccccc1)C(=O)O` [Phenylalanine] were 11.5 ± 1.3% and 15.6 ± 1.7%.
Regarding `O=C(O)[C@@H]1CCCN1` [Proline], the figures for the inhibition at 25 µg/mL in assay [1] and in assay [2] were 7.14 ± 1.1% and 21.6 ± 2.4%, respectively.
As for `NCCCCN` [Putrescine], the inhibition at 25 µg/mL in assay [1] came out at 10.3 ± 1.4%; in assay [2], 16.9 ± 0.2%.
Taken in the same sequence, the figures for `CC(=O)C(=O)O` [Pyruvic acid] were 7.8 ± 0.8% and 9.48 ± 2.9%.
Take `N[C@@H](CO)C(=O)O` [Serine]: the inhibition at 25 µg/mL was 2.91 ± 0.3% in assay [1] and 6.25 ± 2.4% in assay [2].
For the compound `NCCCNCCCCNCCCN` [Spermine], the values for the inhibition at 25 µg/mL in assay [1] and in assay [2] were 3.03 ± 0.5% and 17.5 ± 1.9%, respectively.
As for `C[C@@H](O)[C@H](N)C(=O)O` [Threonine], the inhibition at 25 µg/mL in assay [1] turned out to be 5.82 ± 2.9%; in assay [2], 19.4 ± 1.4%.
Turning to `N[C@@H](Cc1c[nH]c2ccccc12)C(=O)O` [Tryptophan], the values for the inhibition at 25 µg/mL in assay [1] and in assay [2] were 19.6 ± 1.8% and 37.6 ± 0.8%, respectively.
As to `N[C@@H](Cc1ccc(O)cc1)C(=O)O` [Tyrosine], the inhibition at 25 µg/mL in assay [1] came out at 21.8 ± 2.4%; in assay [2], 37.2 ± 1.1%.
`CC(C)[C@H](N)C(=O)O` [Valine]: the inhibition at 25 µg/mL in assay [1] was 8.33 ± 1.3%; in assay [2] it was 21.6 ± 0.9%.
For `O=c1[nH]c(=O)c2nc[nH]c2[nH]1` [Xanthine], the inhibition at 25 µg/mL worked out at 4.37 ± 0.6% in assay [1] and 12.7 ± 3.8% in assay [2].
Turning to `CC(=O)Oc1ccccc1C(=O)O` [compound 1, Aspirin], the inhibition at 108 µg/mL in assay [1] turned out to be 29.8 ± 0.9%.
Turning to `CCCCCCCCCCCCCCCC(=O)O[C@H]1CC[C@@]2(C)C(=CC[C@H]3[C@@H]4CC[C@H]([C@H](C)CCCC(C)C)[C@@]4(C)CC[C@@H]32)C1` [compound 8, Cholesteryl palmitate^#], in assay [3], the “% inhibition” value was 38.0 ± 1.4%.
Regarding `CCCCCCCC/C=C\CCCCCCCC(=O)O[C@H]1CC[C@@]2(C)C(=CC[C@H]3[C@@H]4CC[C@H]([C@H](C)CCCC(C)C)[C@@]4(C)CC[C@@H]32)C1` [compound 9, Cholesteryl oleate^#], the “% inhibition” value in assay [3] stood at 59.5 ± 0.7%.
In the case of `N=C(N)NCCC[C@H](N)C(=O)O` [compound 17, Arginine], the “% inhibition” value in assay [3] turned out to be 22.0 ± 1.4%.
The same measure, in the same setting: the figure for `CC(C)[C@H](N)C(=O)O` [compound 18, Valine] is 18.5 ± 0.7%; for `CC(C)C[C@H](N)C(=O)O` [compound 19, Leucine] it is 19.5 ± 0.7%; for `N[C@@H](Cc1ccc(O)cc1)C(=O)O` [compound 20, Tyrosine] it is 55.0 ± 1.4%.
`CC[C@H](C)[C@H](N)C(=O)O` [compound 21, Isoleucine]: the “% inhibition” value in assay [3] is 17.5 ± 0.7%.
`N[C@@H](Cc1ccccc1)C(=O)O` [compound 22, Phenylalanine]: in assay [3], the “% inhibition” value is 44.0 ± 1.4%.
On to `N[C@@H](CCC(=O)O)C(=O)O` [compound 23, Glutamic acid], for which, in assay [3], the “% inhibition” value is reported as 46.0 ± 1.4%.
With `N[C@@H](Cc1c[nH]c2ccccc12)C(=O)O` [compound 25, Tryptophan], the “% inhibition” value in assay [3] is on record as 57.5 ± 0.7%.
Same read-out and setting: the figure for `C[C@@H](O)[C@H](N)C(=O)O` [compound 26, Threonine] is 45.0 ± 1.4%.
For `NC(=O)C[C@H](N)C(=O)O` [compound 27, Asparagine], in assay [3], the “% inhibition” value turned out to be 28.0 ± 1.4%.
`NCC(=O)O` [compound 29, Glycine]: in assay [3], the “% inhibition” value is 16.5 ± 0.7%.
`CCC(=O)C(=O)O` [α-Ketobutyric acid]: the inhibition at 25 µg/mL in assay [1] stood at 9.65 ± 0.4%; in assay [2], 5.24 ± 0.3%.
Take `CC(C)C(=O)C(=O)O` [α-Ketoisovaleric acid]: the inhibition at 25 µg/mL in assay [1] is 10.5 ± 1.8%; in assay [2], 17.1 ± 2.1%.
Taken in the same sequence, the figures for `CCCC(=O)C(=O)O` [α-Ketovaleric acid] were 4.37 ± 0.5% and 4.13 ± 0.6%.
In the same order, the values of `CC(O)CC(=O)O` (stereo not drawn) [β-Hydroxybutyric acid] are 12.3 ± 1.6% and 19.7 ± 1.5%.

For orientation: inhibition means the drop in the measured response relative to a control, in per cent. Usually % inhibition stands for the percentage by which the read-out fell short of the control.
